Source: patent US10011595B2 (Merck Sharp & Dohme Corp., priority 2014, dated 2018)

Each compound was assayed against human orexin-2 receptor (Homo sapiens (Human), UniProt O43614) (assay: FLIPR Ca2+ Flux Assay, orexin-2 receptor). Conditions: CHO cells expressing the human orexin-2 receptor; agonist 70 pM Ala-6,12 orexin-A; read-out: hOX2R FLIPR IC50.
Chain of human orexin-2 receptor (O43614 whole entry): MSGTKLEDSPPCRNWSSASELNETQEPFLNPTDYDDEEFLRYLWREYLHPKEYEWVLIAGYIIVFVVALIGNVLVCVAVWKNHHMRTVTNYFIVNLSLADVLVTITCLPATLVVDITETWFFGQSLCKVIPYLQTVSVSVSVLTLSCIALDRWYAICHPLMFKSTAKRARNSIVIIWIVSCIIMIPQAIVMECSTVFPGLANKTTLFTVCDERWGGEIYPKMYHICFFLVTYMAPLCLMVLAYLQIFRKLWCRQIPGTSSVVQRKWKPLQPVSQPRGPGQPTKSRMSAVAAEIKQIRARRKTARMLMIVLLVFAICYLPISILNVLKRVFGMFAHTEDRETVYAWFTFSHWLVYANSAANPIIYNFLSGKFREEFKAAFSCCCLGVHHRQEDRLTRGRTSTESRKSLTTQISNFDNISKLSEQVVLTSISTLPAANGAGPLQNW
Assay type: cell-based
Method in brief: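 CHO cells expressing rat OX1 or human OX2 receptor, Fluo-4AM loaded 60 min; compound preincubated 5 min before 70 pM Ala-6,12 human orexin-A in HBSS/20 mM HEPES/0.1% BSA/2.5 mM probenecid, pH 7.4. FLIPR peak fluorescence over 5 min versus agonist-only response gives IC50.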
`CCN(CCN(C)c1cccc(C(C)(C)O)n1)C(=O)c1cccnc1OCC(F)F` [Example I-16, 2-(2,2-difluoroethoxy)-N-ethyl-N-(2-((6-(2-hydroxypropan-2-yl)pyridin-2-yl)(methyl)amino)ethyl)nicotin-amide] showed an IC50 of 0.235 µM. With `CCN(CCN(C)c1nccc(C(C)(C)O)n1)C(=O)c1cccnc1-c1ccccc1` [Example H-30, N-ethyl-N-(2-((4-(2-hydroxypropan-2-yl)pyrimidin-2-yl)(methyl)amino)ethyl)-2-phenylnicotinamide] the IC50 was 0.053 µM. `CCN(CCN(C)c1nc(C)cc(C)n1)C(=O)c1cccnc1CC(F)(F)F` [Example B-21, N-{2-[(4,6-dimethylpyrimidin-2-yl)(methyl)amino]ethyl}-N-ethyl-2-(2,2,2-trifluoroethyl)pyridine-3-carboxamide] was tested, and the IC50 was 0.424 µM. With `CCN(CCN(C)c1cccc(C(C)(C)O)n1)C(=O)c1ncccc1-n1nccn1` [Example I-9, N-ethyl-N-(2-((6-(2-hydroxypropan-2-yl)pyridin-2-yl)(methyl)amino)ethyl)-3-(2H-1,2,3-triazol-2-yl)picolinamide] the IC50 was 0.312 µM. `CCN(CCN(C)c1nccc(C(C)(C)O)n1)C(=O)c1ncccc1-n1nccn1` [Example H-34, N-ethyl-N-[2-[[4-(1-hydroxy-1-methyl-ethyl)pyrimidin-2-yl]-methyl-amino]ethyl]-3-(triazol-2-yl)pyridine-2-carboxamide] was tested, and the IC50 was 0.043 µM. `CCN(CCN(C)c1nc(C)cc(C)n1)C(=O)c1ccccc1-c1ncccn1` [Example B-32, N-{2-[(4,6-dimethylpyrimidin-2-yl)(methyl)amino]ethyl}-N-ethyl-2-pyrimidin-2-ylbenzamide] was tested, and the IC50 was 0.0195 µM. Compound `CCN(CCN(C)c1cc(C#N)ccn1)C(=O)c1cccc2[nH]c(=O)oc12` [Example F-18, N-{2-[(4-cyanopyridin-2-yl)(methyl)amino]ethyl}-N-ethyl-2-oxo-2,3-dihydro-1,3-benzoxazole-7-carboxamide] has an IC50 of 10 µM. For `CCN(CCN(C)c1cccc(C(C)(C)O)n1)C(=O)c1cccnc1-n1cccn1` [Example I-24, N-ethyl-N-(2-((6-(2-hydroxypropan-2-yl)pyridin-2-yl)(methyl)amino)ethyl)-2-(1H-pyrazol-1-yl)nicotinamide], the IC50 was 0.104 µM. In the case of `CCN(CCN(C)c1cccc(C#N)n1)C(=O)c1ccccc1-n1nccn1` [Example E-22, N-{2-[(6-cyanopyridin-2-yl)(methyl)amino]ethyl}-N-ethyl-2-(2H-1,2,3-triazol-2-yl)benzamide], the IC50 is reported as 0.569 µM. With `CCN(CCN(C)c1cccc(C(C)(C)O)n1)C(=O)c1cccnc1CC(F)(F)F` [Example I-19, N-ethyl-N-(2-((6-(2-hydroxypropan-2-yl)pyridin-2-yl)(methyl)amino)ethyl)-2-(2,2,2-trifluoroethyl)nicotinamide] the IC50 was 2.27 µM. Compound `CCN(CCN(C)c1cc(C#N)ccn1)C(=O)c1ccccc1N1CCCC1` [Example F-22, N-{2-[(4-cyanopyridin-2-yl)(methyl)amino]ethyl}-N-ethyl-2-pyrrolidin-1-ylbenzamide] has an IC50 of 0.0318 µM. With `CCN(CCN(C)c1nc(C)cc(C)n1)C(=O)c1cccnc1-n1cccn1` [Example B-24, N-{2-[(4,6-dimethylpyrimidin-2-yl)(methyl)amino]ethyl}-N-ethyl-2-(1H-pyrazol-1-yl)pyridine-3-carboxamide] the IC50 was 0.0128 µM. `CCN(CCN(C)c1nccc(C#N)c1C)C(=O)c1ccccc1-n1nccn1` [Example E-7, N-(2-((4-cyano-3-methylpyridin-2-yl)(methyl)amino)ethyl)-N-ethyl-2-(2H-1,2,3-triazol-2-yl)benzamide] gave an IC50 of 0.198 µM. In the case of `CCN(CCN(C)c1nc(C)cc(C)n1)C(=O)c1nccnc1-n1cccn1` [Example B-28, N-{2-[(4,6-dimethylpyrimidin-2-yl)(methyl)amino]ethyl}-N-ethyl-3-(1H-pyrazol-1-yl)pyrazine-2-carboxamide], the IC50 is reported as 0.0187 µM. `CCCCN(CCN(C)c1cc(C#N)ccn1)C(=O)c1ccccc1-n1nccn1` [Example G-5, N-butyl-N-(2-((4-cyanopyridin-2-yl)(methyl)amino)ethyl)-2-(2H-1,2,3-triazol-2-yl)benzamide] gave an IC50 of 0.0198 µM. `CCN(CCN(C)c1cccc(C(C)(C)O)n1)C(=O)c1ccccc1OCC(F)(F)F` [Example I-17, N-ethyl-N-(2-((6-(2-hydroxypropan-2-yl)pyridin-2-yl)(methyl)amino)ethyl)-2-(2,2,2-trifluoroethoxy)benzamide] showed an IC50 of 0.326 µM. `CCN(CCN(C)c1nccc(C(C)(C)O)n1)C(=O)c1ccccc1-n1nccn1` [Example H-1, N-ethyl-N-(2-((4-(2-hydroxypropan-2-yl)pyrimidin-2-yl)(methy)amino)ethyl)-2-(2H-1,2,3-triazol-2-yl)benzamide] gave an IC50 of 0.011 µM. `CCN(CCN(C)c1nc(C)cc(C)n1)C(=O)c1ncccc1-n1nccn1` [Example B-22, N-{2-[(4,6-dimethylpyrimidin-2-yl)(methyl)amino]ethyl}-N-ethyl-3-(2H-1,2,3-triazol-2-yl)pyridine-2-carboxamide] showed an IC50 of 0.0324 µM. `CN(CCN(CC1CC1)C(=O)c1ccccc1-n1nccn1)c1cc(C#N)ccn1` [Example G-7, N-(2-((4-cyanopyridin-2-yl)(methyl)amino)ethyl)-N-(cycloproplmethyl)-2-(2H-1,2,3-triazol-2-yl)benzamide] was tested, and the IC50 was 0.0358 µM. `CCOc1ncccc1C(=O)N(CC)CCN(C)c1nc(C)cc(C)n1` [Example B-6, N-(2-((4,6-dimethylpyrimidin-2-yl)(methyl)amino)ethyl)-2-ethoxy-N-ethylnicotinamide] was tested, and the IC50 was 0.0681 µM. Work on `CCN(CCN(C)c1nccc(C(C)(C)O)n1)C(=O)c1ccccc1-n1ncnn1` [Example H-29, N-ethyl-N-(2-((4-(2-hydroxypropan-2-yl)pyrimidin-2-yl)(methyl)amino)ethyl)-2-(2H-tetrazol-2-yl)benzamide] yielded an IC50 of 0.017 µM. `CCN(CCN(C)c1cccc(C(C)(C)O)n1)C(=O)c1ccccc1-n1ncnn1` [Example I-23, N-ethyl-N-(2-((6-(2-hydroxypropan-2-yl)pyridin-2-yl)(methyl)amino)ethyl)-2-(2H-tetrazol-2-yl)benzamide] showed an IC50 of 0.0696 µM. For `CCN(CCN(C)c1nc(C)cc(C)n1)C(=O)c1cccnc1-c1ccccc1` [Example B-9, N-(2-((4,6-dimethylpyrimidin-2-yl)(methyl)amino)ethyl)-N-ethyl-2-phenylnicotinamide], the IC50 was 0.0264 µM. With `CCN(CCN(C)c1nccc(C#N)c1Cl)C(=O)c1ccccc1-n1nccn1` [Example E-8, N-{2-[(3-chloro-4-cyanopyridin-2-yl)(methyl)amino]ethyl}-N-ethyl-2-(2H-1,2,3-triazol-2-yl)benzamide] the IC50 was 0.11 µM. In the case of `CC(C)N(CCN(C)c1cc(C#N)ccn1)C(=O)c1ccccc1-n1nccn1` [Example G-9, N-(2-((4-cyanopyridin-2-yl)(methyl)amino)ethyl)-N-isopropyl-2-(2H-1,2,3-triazol-2-yl)benzamide], the IC50 is reported as 0.0765 µM. `CCN(CCN(C)c1cccc(C(C)(C)O)n1)C(=O)c1ccccc1C1CC1` [Example I-13, 2-cyclopropyl-N-ethyl-N-(2-((6-(2-hydroxypropan-2-yl)pyridin-2-yl)(methyl)amino)ethyl)benz-amide] was tested, and the IC50 was 0.0537 µM. `CCN(CCN(C)c1nc(C)cc(C)n1)C(=O)c1ccccc1OC(F)(F)F` [Example B-7, N-(2-((4,6-dimethylpyrimidin-2-yl)(methyl)amino)ethyl)-N-ethyl-2-(trifluoromethoxy)benzamide] showed an IC50 of 0.0094 µM.
